Reference: US8063221B2, “Aminoquinolones as GSK-3 inhibitors” (Kyorin Pharmaceutical Co., Ltd., priority 2006, dated 2011)
≈ marks a conversion by molar mass, not a printed value. Like-named read-outs stand apart in the source and are kept apart here.

Experiments:
[1] = target: T1, recombinant full-length human GSK3β (Homo sapiens, UniProt P49841); experiment: Luciferase-coupled cell-free GSK3β kinase assay; format: biochemical
T1 construct: recombinant full-length human GSK3β (Upstate); purchased Upstate
Summary of the method: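 GSK3β, 10-25 ng, was incubated with compound for 1 h at 30° C in MOPS pH 7.0 buffer containing 62.5 μM phospho-glycogen synthase peptide-2 and 5 μM ATP. Remaining ATP was read by KinaseGlo luminescence, and IC50 was fitted from % inhibition relative to maximal inhibition.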

E. coli, ATCC8739 = experiment: Antibacterial activity (MIC), E. coli; format: cell-based; settings: Escherichia coli
Excerpt: (§1) As used herein, a minimum inhibitory concentration (MIC) for bacterial growth assay is the lowest level of a compound needed to cause an inhibition to bacterial growth in culture medium. In certain embodiments, the antibacterial activity of compounds herein, measured as MIC.
(§2) In certain embodiments, GSK3 inhibitors provided herein are substantially free of antibacterial activity or having very low antibacterial activity. The antibacterial activity can be measured by methods known in the art by estimating a minimum inhibitory concentration (MIC) for test compounds. A MIC is the lowest level of a compound needed to cause an inhibition to bacterial growth in a culture medium. […] (Clinical and Laboratory Standards Institute. Methods for Dilution Antimicrobial Susceptibility Tests for Bacteria That Grow Aerobically; Approved Standard-Sixth Edition: CLSI document […]. CLSI, Wayne, Pa. (2003))
(§3) Antibacterial activity for E. coli, ATCC8739 andS. aureus Smith expressed as MIC (μM) is provided as follows: […]

S. aureus Smith = experiment: Antibacterial activity (MIC), S. aureus; format: cell-based; settings: Staphylococcus aureus
Excerpt: as §1, §2, §3

[2] = ATCC8739, Table 1, E. coli ATCC8739, read-out: Antibacterial MIC (μM) E.Coli
[3] = Table 1, read-out: Antibacterial MIC (μM) S. aureus Smith
[4] = ATCC8739, read-out: Antibacterial MIC (μM) E.Coli
[5] = read-out: Antibacterial MIC (μM) S. aureus Smith

T1 sequence (P49841 whole entry): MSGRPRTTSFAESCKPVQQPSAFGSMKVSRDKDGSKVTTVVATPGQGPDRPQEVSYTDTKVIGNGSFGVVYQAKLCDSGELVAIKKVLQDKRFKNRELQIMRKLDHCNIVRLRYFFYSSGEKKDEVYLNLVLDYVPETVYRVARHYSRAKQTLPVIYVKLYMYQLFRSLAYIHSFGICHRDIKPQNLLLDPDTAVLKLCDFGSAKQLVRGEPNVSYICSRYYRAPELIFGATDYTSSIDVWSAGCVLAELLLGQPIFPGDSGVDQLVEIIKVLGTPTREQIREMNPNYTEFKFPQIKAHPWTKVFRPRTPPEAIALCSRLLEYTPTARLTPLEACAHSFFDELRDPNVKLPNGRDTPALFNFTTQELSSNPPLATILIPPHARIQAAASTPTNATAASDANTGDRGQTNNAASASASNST

Row | IC50 ([1]; Table 1) | MIC (E. coli, ATCC8739; [2]) | MIC (S. aureus Smith; [3]) | Compound | other results
1 | – | – | – | CC(C)[C@@H]1COc2c(NCCCn3cnc4ccccc43)c(F)c(N)c3c(=O)c(C(=O)O)cn1c23 [compound 65] | IC50 ([1]; Table 2): < 100 nM; MIC (E. coli, ATCC8739; ATCC8739, Table 2, E. coli ATCC8739, read-out: Antimicrobial MIC [μM] E. Coli): 0.5 to 10 µM (≈ 0.24 to 4.8 µg/mL); MIC (S. aureus Smith; Table 2, S. aureus Smith, read-out: Antimicrobial MIC [μM] S. aureus): 0.5 to 10 µM (≈ 0.24 to 4.8 µg/mL)
2 | 100 to 500 nM | 10 to 50 µM (≈ 4.82 to 24.1 µg/mL) | 10 to 50 µM (≈ 4.82 to 24.1 µg/mL) | Nc1c(F)c(NCCCc2ccccc2)c(F)c2c1c(=O)c(C(=O)O)cn2CCCn1ccnc1 [compound 65] | –
3 | < 100 nM | 10 to 50 µM (≈ 3.84 to 19.2 µg/mL) | 10 to 50 µM (≈ 3.84 to 19.2 µg/mL) | Nc1cc(NCCNc2cccc3ccccc23)cc2c1c(=O)ccn2C1CC1 [compound 66] | –
4 | < 100 nM | 10 to 50 µM (≈ 4.25 to 21.3 µg/mL) | 0.5 to 10 µM (≈ 0.213 to 4.25 µg/mL) | COc1c(NCCCc2ccccc2)c(F)c(N)c2c(=O)c(C(=O)O)cn(C3CC3)c12 [compound 67] | –
5 | 500 to 1000 nM | 10 to 50 µM (≈ 4.12 to 20.6 µg/mL) | 0.5 to 10 µM (≈ 0.206 to 4.12 µg/mL) | COc1c(NCCc2ccncc2)c(F)c(N)c2c(=O)c(C(=O)O)cn(C3CC3)c12 [compound 68] | –
6 | < 100 nM | 10 to 50 µM (≈ 4.15 to 20.8 µg/mL) | 0.5 to 10 µM (≈ 0.208 to 4.15 µg/mL) | COc1c(NCCCn2ccnc2)c(F)c(N)c2c(=O)c(C(=O)O)cn(C3CC3)c12 [compound 69] | –
7 | < 100 nM | 10 to 50 µM (≈ 3.97 to 19.9 µg/mL) | 10 to 50 µM (≈ 3.97 to 19.9 µg/mL) | Nc1c(F)c(NCCCc2ccccc2)c(F)c2c1c(=O)ccn2C1CCCC1 [compound 72] | –
8 | < 100 nM | > 50 µM | > 50 µM | Nc1c(F)c(NCCc2ccncc2)c(F)c2c1c(=O)ccn2C1CCCC1 [compound 73] | –
9 | < 100 nM | > 50 µM | > 50 µM | Nc1c(F)c(NCCCn2ccnc2)c(F)c2c1c(=O)ccn2C1CCCC1 [compound 74] | –
10 | 100 to 500 nM | > 50 µM | > 50 µM | CC(C)OCCCNc1c(F)c(N)c2c(=O)ccn(C3CCCC3)c2c1F [compound 75] | –
11 | < 100 nM | > 50 µM | > 50 µM | Nc1c(F)c(NCCNc2ccccn2)c(F)c2c1c(=O)ccn2C1CCCC1 [compound 76] | –
12 | > 1000 nM | 10 to 50 µM (≈ 4.55 to 22.8 µg/mL) | 0.5 to 10 µM (≈ 0.228 to 4.55 µg/mL) | COc1c(NCCNc2ccccn2)c(F)c(N)c2c(=O)c(C(=O)O)cn(C3CCCC3)c12 [compound 77] | –
13 | 500 to 1000 nM | > 50 µM | > 50 µM | COc1c(NCCCn2ccnc2)c(F)c(N)c2c(=O)c(C(=O)O)cn(C3CCCC3)c12 [compound 78] | –
14 | – | – | – | CC1(C)COc2c(NCCCn3ccnc3)c(F)c(N)c3c(=O)ccn1c23 [compound 79] | IC50 ([1]; Table 2): < 100 nM; MIC (E. coli, ATCC8739; ATCC8739, read-out: Antimicrobial MIC [μM] E. Coli): > 50 µM; MIC (S. aureus Smith; read-out: Antimicrobial MIC [μM] S. aureus): > 50 µM
15 | > 1000 nM | > 50 µM | 10 to 50 µM (≈ 4.4 to 22 µg/mL) | COc1c(NCCc2ccncc2)c(F)c(N)c2c(=O)c(C(=O)O)cn(C3CCCC3)c12 [compound 80] | –
16 | < 100 nM | 10 to 50 µM (≈ 4.11 to 20.6 µg/mL) | 0.5 to 10 µM (≈ 0.206 to 4.11 µg/mL) | CC1COc2c(NCCCc3ccccc3)c(F)c(N)c3c(=O)c(C(=O)O)cn1c23 (stereo not drawn) [compound 81] | –
17 | > 1000 nM | 10 to 50 µM (≈ 4.41 to 22.1 µg/mL) | 10 to 50 µM (≈ 4.41 to 22.1 µg/mL) | COc1c(NCCCOc2ccccc2)c(F)c(N)c2c(=O)c(C(=O)O)cn(C3CC3)c12 [compound 82] | –
18 | 100 to 500 nM | 10 to 50 µM (≈ 4.26 to 21.3 µg/mL) | 0.5 to 10 µM (≈ 0.213 to 4.26 µg/mL) | COc1c(NCCNc2ccccc2)c(F)c(N)c2c(=O)c(C(=O)O)cn(C3CC3)c12 [compound 84] | –
19 | < 100 nM | 0.5 to 10 µM (≈ 0.207 to 4.13 µg/mL) | 0.5 to 10 µM (≈ 0.207 to 4.13 µg/mL) | CC1COc2c(NCCNc3ccccn3)c(F)c(N)c3c(=O)c(C(=O)O)cn1c23 (stereo not drawn) [compound 90] | –

Row | Compound | IC50 ([1]; Table 1) | MIC (E. coli, ATCC8739; [2]) | MIC (S. aureus Smith; [3]) | other results
20 | COc1c(NCCCc2ccccc2)c(F)c(N)c2c(=O)c(C(=O)O)cn(C3CCCC3)c12 [compound 79] | 100 to 500 nM | – | – | MIC (E. coli, ATCC8739; [4]): 10 to 50 µM (≈ 4.54 to 22.7 µg/mL); MIC (S. aureus Smith; [5]): 10 to 50 µM (≈ 4.54 to 22.7 µg/mL)
21 | COc1c(NCCCn2cnc3ccccc32)c(F)c(N)c2c(=O)c(C(=O)O)cn(C3CC3)c12 [compound 83] | < 100 nM | – | – | MIC (E. coli, ATCC8739; [4]): 10 to 50 µM (≈ 4.65 to 23.3 µg/mL); MIC (S. aureus Smith; [5]): 0.5 to 10 µM (≈ 0.233 to 4.65 µg/mL)
22 | COc1c(NCCc2cccnc2)c(F)c(N)c2c(=O)c(C(=O)O)cn(C3CC3)c12 [compound 85] | > 1000 nM | – | – | MIC (E. coli, ATCC8739; [4]): 0.5 to 10 µM (≈ 0.206 to 4.12 µg/mL); MIC (S. aureus Smith; [5]): < 0.5 µM
